Read-outs that look alike come from different tables or passages of the source. Marks after values point to notes of the source that are not given here. Peptide text beside a SMILES is read from it. * marks the point of attachment. 5FAM = O=C1OC2(c3ccc(O)cc3Oc3cc(O)ccc32)c2ccc(C(=O)*)cc21
Tests used:
[1] = Ex vivo trans-corneal permeation, Franz-type diffusion cells; format: in vitro ADME, pig; conditions: ex vivo porcine cornea, area 0.2 cm^2, 37 °C, 6 h, fluorescence 485/535 nm, mean ± sd
Procedure: (§1) Permeation experiments across freshly porcine cornea were performed following a method previously reported. In detail, transparent porcine corneas were isolated from fresh pig eyes (breed: Large White and Landrace; weight: 145–190 kg; age: 10–11 months; sex: female and male; Macello Annoni SpA, Busseto, Italy) and supported by glass Franz-type diffusion cells, having a permeation area of 0.2 cm^2. The epithelial side was in contact with the donor, i.e., 200 µL of aqueous solution containing a peptide: each concentration and solvent are indicated in Table 2. Donor concentrations were selected based on different solubility and analytical sensitivity (see paragraph 2.4 and Table S2). For some peptides, the solubilization was improved by dissolving the raw material using small amount of DMSO (final concentration less than 5% v/v), and then PBS or PBS+0.1% BSA were alternately added.
To fill the receptor compartment, around 4 mL of degassed PBS or PBS+0.1% BSA was used (see Table 2), being kept at 37 °C and maintained under magnetic stirring to avoid any boundary layer effect. The presence of 0.1% BSA aids in preventing peptides aggregation. Permeation experiments lasted 6 h, and for quantification purposes, 200 µL of the receiving solution were collected every hour and reintegrated with fresh medium. Each condition was replicated between 3 and 4 times, using cornea isolated from different animals.
Permeation samples were analysed without preliminary separation by fluorescence, using a Spark 10M microplate reader (Tecan Trading AG, Switzerland); excitation and emission wavelengths were 485 nm and 535 nm, respectively. Standard solutions were prepared in PBS pH 7.4 or in PBS containing BSA 0.1%. RSD% (relative standard deviation %) was lower than 10%, while ER% (relative error %) resulted lower than 15%.
The amount of CPP permeated across the cornea (nmol/cm^2) is plotted against time (hour): the slope of the regression line at steady state represents the trans-corneal flux J (nmol/cm^2 h). The apparent permeability coefficient Papp (cm/s) is then calculated as Equation (1): Papp = J/c(1) being c (µM) the concentration of the donor solution. Papp allows for a direct comparison among permeants studied using different donor concentrations.

[2] = FAM alone, trans-corneal; cited from earlier work
Excerpt: Finally, also the propensity of CPPs to enter corneal epithelium and endothelium cells should be considered.

[3] = Aqueous solubility / precipitation of donor solutions (observation); format: physicochemical; conditions: for solubility in aqueous medium: fluorescein (FL) as cargo, not used in ex vivo permeation experiments; for solubilization of donor solution: 250 µM, PBS pH 7.4
Procedure: as §1
We have also analysed if the sequence reciprocity (GG vs. R) plays a role in the diffusivity of the peptide across the cornea and we found no difference between most of the paired sequences, namely PNT-GG 2 vs. PNT-R 4, PNT-GG 3 vs. PNT-R 3, PNT-GG 4 vs. PNT-R 2, PNT-GG 5 vs. PNT-R 1 (Figure 3b). This confirms that the sequence is only one of the factors affecting the translocation: in fact, even CPP concentration, type of cells, and cargo can strongly influence CPP final behavior/activity. […] Differently, the presence of FAM, a more hydrophilic fluorescent probe, allowed for aqueous solutions ranging in concentration from 25 to 250 µM (Table 2).

[4] = donor 100 µM, 200 µL, donor and receiving solutions PBS+BSA 0.1% pH 7.4, n = 3
[5] = donor 250 µM, 200 µL, donor and receiving solutions PBS pH 7.4, n = 3-4
[6] = donor 25 µM, 200 µL, donor and receiving solutions PBS pH 7.4, n = 4

Compound: CC[C@H](C)[C@H](NC(=O)[C@H](CCCCN)NC(=O)[C@@H](NC(=O)[C@H](CCC(N)=O)NC(=O)[C@H](CCCNC(=N)N)NC(=O)CNC(=O)CNC(=O)c1ccc2c(c1)C(=O)OC21c2ccc(O)cc2Oc2cc(O)ccc21)[C@@H](C)CC)C(=O)N[C@@H](Cc1c[nH]c2ccccc12)C(=O)N[C@@H](Cc1ccccc1)C(=O)N[C@@H](CCC(N)=O)C(N)=O [PNT-GG 5] (5FAM-GGRQIKIWFQ-NH2)
- Papp (apparent permeability coefficient) ([1]; donor 100 µM in PBS pH 7.4, receiving solution PBS+BSA 0.1% pH 7.4, n = 3): 0.50 ± 0.70 ^d × 10^−6 cm/s
- Papp (apparent permeability coefficient) [1, 4]: 0.24 ± 0.40 ^d × 10^−6 cm/s

Compound: 5(6)-Carboxyfluorescein [FAM]
- Papp (apparent permeability coefficient) [2]: 0.29 ± 0.08 × 10^−6 cm/s

Compound: FL-GG-WKMRRNQF [PNT-R-4-FL, fluorescein-GG-labelled analogue of PNT-R 4, C-terminal amide]
- solubility in aqueous medium [3]: poorly soluble

Compound: CSCC[C@H](NC(=O)[C@H](CCCNC(=N)N)NC(=O)[C@H](CCCNC(=N)N)NC(=O)[C@H](CC(N)=O)NC(=O)[C@H](CCC(N)=O)NC(=O)[C@H](Cc1ccccc1)NC(=O)CNC(=O)CNC(=O)c1ccc2c(c1)C(=O)OC21c2ccc(O)cc2Oc2cc(O)ccc21)C(=O)N[C@@H](CCCCN)C(=O)N[C@@H](Cc1c[nH]c2ccccc12)C(N)=O [PNT-GG 2] (5FAM-GGFQNRRMKW-NH2)
- Papp (apparent permeability coefficient) [1, 4]: 0.55 ± 0.57 × 10^−6 cm/s

Compound: CSCC[C@H](NC(=O)[C@H](CCCCN)NC(=O)[C@H](Cc1c[nH]c2ccccc12)NC(=O)[C@H](CCCCN)NC(=O)[C@H](CCCCN)NC(=O)CNC(=O)CNC(=O)c1ccc2c(c1)C(=O)OC21c2ccc(O)cc2Oc2cc(O)ccc21)C(=O)N[C@@H](CCCNC(=N)N)C(=O)N[C@@H](CCCNC(=N)N)C(=O)N[C@@H](CC(N)=O)C(N)=O [PNT-R 5] (5FAM-GGKKWKMRRN-NH2)
- Papp (apparent permeability coefficient) [1, 5]: 0.05 ± 0.01 × 10^−6 cm/s

Compound: CC[C@H](C)[C@H](NC(=O)CNC(=O)CNC(=O)c1ccc2c(c1)C(=O)OC21c2ccc(O)cc2Oc2cc(O)ccc21)C(=O)N[C@@H](Cc1c[nH]c2ccccc12)C(=O)N[C@@H](Cc1ccccc1)C(=O)N[C@@H](CCC(N)=O)C(=O)N[C@@H](CC(N)=O)C(=O)N[C@@H](CCCNC(=N)N)C(=O)N[C@@H](CCCNC(=N)N)C(=O)N[C@@H](CCSC)C(N)=O [PNT-GG 3] (5FAM-GGIWFQNRRM-NH2)
- Papp (apparent permeability coefficient) [1, 4]: 0.44 ± 0.50 × 10^−6 cm/s

Compound: CC[C@H](C)[C@H](NC(=O)[C@H](CCCCN)NC(=O)[C@@H](NC(=O)[C@H](Cc1c[nH]c2ccccc12)NC(=O)[C@H](Cc1ccccc1)NC(=O)[C@H](CCC(N)=O)NC(=O)[C@H](CC(N)=O)NC(=O)[C@H](CCCNC(=N)N)NC(=O)[C@H](CCCNC(=N)N)NC(=O)[C@H](CCSC)NC(=O)[C@H](CCCCN)NC(=O)[C@H](Cc1c[nH]c2ccccc12)NC(=O)[C@H](CCCCN)NC(=O)[C@H](CCCCN)NC(=O)CNC(=O)CNC(=O)c1ccc2c(c1)C(=O)OC21c2ccc(O)cc2Oc2cc(O)ccc21)[C@@H](C)CC)C(=O)N[C@@H](CCC(N)=O)C(=O)N[C@@H](CCCNC(=N)N)C(N)=O [PNT-R] (5FAM-GGKKWKMRRNQFWIKIQR-NH2)
- solubilization of donor solution [3]: complete solubilization
- Papp (apparent permeability coefficient) [1, 6]: 7.08 ± 6.66 × 10^−6 cm/s

Compound: CC[C@H](C)[C@H](NC(=O)[C@H](CCCCN)NC(=O)[C@@H](NC(=O)[C@H](CCC(N)=O)NC(=O)[C@H](CCCNC(=N)N)NC(=O)CNC(=O)CNC(=O)c1ccc2c(c1)C(=O)OC21c2ccc(O)cc2Oc2cc(O)ccc21)[C@@H](C)CC)C(=O)N[C@@H](Cc1c[nH]c2ccccc12)C(=O)N[C@@H](Cc1ccccc1)C(=O)N[C@@H](CCC(N)=O)C(=O)N[C@@H](CC(N)=O)C(=O)N[C@@H](CCCNC(=N)N)C(=O)N[C@@H](CCCNC(=N)N)C(=O)N[C@@H](CCSC)C(=O)N[C@@H](CCCCN)C(=O)N[C@@H](Cc1c[nH]c2ccccc12)C(=O)N[C@@H](CCCCN)C(=O)N[C@@H](CCCCN)C(N)=O [PNT-GG]
- solubilization of donor solution [3]: complete solubilization
- Papp (apparent permeability coefficient) [1, 6]: 4.41 ± 2.93 × 10^−6 cm/s

Compound: CSCC[C@H](NC(=O)[C@H](CCCNC(=N)N)NC(=O)[C@H](CCCNC(=N)N)NC(=O)[C@H](CC(N)=O)NC(=O)CNC(=O)CNC(=O)c1ccc2c(c1)C(=O)OC21c2ccc(O)cc2Oc2cc(O)ccc21)C(=O)N[C@@H](CCCCN)C(=O)N[C@@H](Cc1c[nH]c2ccccc12)C(=O)N[C@@H](CCCCN)C(=O)N[C@@H](CCCCN)C(N)=O [PNT-GG 1] (5FAM-GGNRRMKWKK-NH2)
- Papp (apparent permeability coefficient) ([1]; epithelial side to donor, donor 100 µM, 200 µL, donor and receiving solutions PBS pH 7.4, hourly sampling, n = 3-4): 1.33 ± 0.11 × 10^−6 cm/s

Compound: FL-GG-KKWKMRRNQFWIKIQR [PNT-R-FL, fluorescein-GG-labelled reversed penetratin, C-terminal amide]
- solubility in aqueous medium [3]: poorly soluble

Compound: CC[C@H](C)[C@H](NC(=O)[C@H](CCCCN)NC(=O)[C@@H](NC(=O)[C@H](Cc1c[nH]c2ccccc12)NC(=O)[C@H](Cc1ccccc1)NC(=O)[C@H](CCC(N)=O)NC(=O)CNC(=O)CNC(=O)c1ccc2c(c1)C(=O)OC21c2ccc(O)cc2Oc2cc(O)ccc21)[C@@H](C)CC)C(=O)N[C@@H](CCC(N)=O)C(=O)N[C@@H](CCCNC(=N)N)C(N)=O [PNT-R 1] (5FAM-GGQFWIKIQR-NH2)
- Papp (apparent permeability coefficient) [1, 5]: 0.93 ± 0.53 × 10^−6 cm/s

Compound: CC[C@H](C)[C@H](NC(=O)[C@H](Cc1c[nH]c2ccccc12)NC(=O)[C@H](Cc1ccccc1)NC(=O)[C@H](CCC(N)=O)NC(=O)[C@H](CC(N)=O)NC(=O)[C@H](CCCNC(=N)N)NC(=O)[C@H](CCCNC(=N)N)NC(=O)[C@H](CCSC)NC(=O)CNC(=O)CNC(=O)c1ccc2c(c1)C(=O)OC21c2ccc(O)cc2Oc2cc(O)ccc21)C(N)=O [PNT-R 3] (5FAM-GGMRRNQFWI-NH2)
- Papp (apparent permeability coefficient) [1, 5]: 0.002 ± 0.004 × 10^−6 cm/s

Compound: CC[C@H](C)[C@H](NC(=O)[C@H](CCCCN)NC(=O)[C@@H](NC(=O)[C@H](Cc1c[nH]c2ccccc12)NC(=O)[C@H](Cc1ccccc1)NC(=O)[C@H](CCC(N)=O)NC(=O)[C@H](CC(N)=O)NC(=O)[C@H](CCCNC(=N)N)NC(=O)CNC(=O)CNC(=O)c1ccc2c(c1)C(=O)OC21c2ccc(O)cc2Oc2cc(O)ccc21)[C@@H](C)CC)C(N)=O [PNT-R 2] (5FAM-GGRNQFWIKI-NH2)
- Papp (apparent permeability coefficient) [1, 5]: 0.23 ± 0.16 × 10^−6 cm/s

Compound: CC[C@H](C)[C@H](NC(=O)CNC(=O)CNC(=O)c1ccc2c(c1)C(=O)OC21c2ccc(O)cc2Oc2cc(O)ccc21)C(=O)N[C@@H](CCCCN)C(=O)N[C@H](C(=O)N[C@@H](Cc1c[nH]c2ccccc12)C(=O)N[C@@H](Cc1ccccc1)C(=O)N[C@@H](CCC(N)=O)C(=O)N[C@@H](CC(N)=O)C(=O)N[C@@H](CCCNC(=N)N)C(N)=O)[C@@H](C)CC [PNT-GG 4] (5FAM-GGIKIWFQNR-NH2)
- Papp (apparent permeability coefficient) [1, 4]: 0.34 ± 0.14 × 10^−6 cm/s

Compound: CSCC[C@H](NC(=O)[C@H](CCCCN)NC(=O)[C@H](Cc1c[nH]c2ccccc12)NC(=O)CNC(=O)CNC(=O)c1ccc2c(c1)C(=O)OC21c2ccc(O)cc2Oc2cc(O)ccc21)C(=O)N[C@@H](CCCNC(=N)N)C(=O)N[C@@H](CCCNC(=N)N)C(=O)N[C@@H](CC(N)=O)C(=O)N[C@@H](CCC(N)=O)C(=O)N[C@@H](Cc1ccccc1)C(N)=O [PNT-R 4] (5FAM-GGWKMRRNQF-NH2)
- Papp (apparent permeability coefficient) [1, 5]: 0.13 ± 0.07 × 10^−6 cm/s

From publication PMC7466059, “Synthesis and Ex Vivo Trans-Corneal Permeation of Penetratin Analogues as Ophthalmic Carriers: Preliminary Results” (Pharmaceutics, 2020)
